Consider 87 compounds from ChEMBL document CHEMBL1157539, “Thousands of chemical starting points for antimalarial lead identification” (Nature, 2010).

The test system of this experiment is Plasmodium falciparum. Description: GSK_TCMDC: Inhibition of Plasmodium falciparum 3D7 in whole erythrocytes, using parasite LDH activity as an index of growth. To be noted: Plasmodium falciparum, 3D7. In kind it is functional, organism-based.
For the compound `O=[N+]([O-])c1ccc(/C=N/O)nc1`, the XC50 worked out at 872 nM.

For the compound `COc1cc(/C=N/Nc2nc(Nc3ccccc3)nc(Nc3ccccc3)n2)ccc1OCc1ccccc1[N+](=O)[O-]`, the XC50 turned out to be 806 nM.

Regarding `CCc1nc(N)nc(N)c1-c1ccc(C(C)(C)C)cc1`, the XC50 stood at 235 nM.

The compound `CCOc1cc(Cc2cnc(N)nc2N)cc(OC)c1OC` registered an XC50 of 913 nM.

`COc1ccc(NC(=O)NC2CCN(c3ccnc4cc(Cl)ccc34)C2)cc1` (configuration not stated): the XC50 came to 99.3 nM.

`c1ccc2cc(CNCCCN3CCN(CCCNCc4ccc5ccccc5c4)CC3)ccc2c1`: the XC50 was found to be 545 nM.

Compound `CCCCCN1CCC(NS(=O)(=O)c2cccc(C(=O)Nc3ccc(Cl)cc3)c2)CC1` showed an XC50 of 918 nM.

`O=C(NC1CCC(N2CCN(c3cccc4[nH]ccc34)CC2)CC1)c1cc2cccnc2[nH]1` (configuration not stated) displayed an XC50 of 492 nM.

The compound `O=C(Nc1ccc(Cl)c(Cl)c1)N1CCC(NCc2cccc([N+](=O)[O-])c2)CC1` registered an XC50 of 763 nM.

`COc1ccc2c(=O)c(I)c(C)[nH]c2c1` registered an XC50 of 440 nM.

Turning to `COc1ccc2nc3cc(Cl)ccc3c(NCCCO)c2c1`, the XC50 came to 783 nM.

Compound `Cc1ncc(CN2CCC(C(=O)Nc3ccc(-c4nc5ccccc5o4)cc3)CC2)s1` returned an XC50 of 393 nM.

The compound `CCCc1ccc(Cc2cnc3nc(N)nc(N)c3c2C)cc1` had an XC50 of 283 nM.

For `O=C(Nc1cccc(-c2cccc(-c3nc4ccccc4[nH]3)c2)c1)c1ccoc1`, the XC50 worked out at 741 nM.

Regarding `O=[N+]([O-])c1c(O)nc2c(c1O)CCC2`, the XC50 amounted to 1050 nM.

Compound `OCC1CCN(Cc2cccc(C#Cc3cc4ncnc(Nc5ccc(OCc6cccc(F)c6)c(Cl)c5)c4s3)n2)CC1` came in with an XC50 of 552 nM.

`O=C(Nc1ccc(Cl)cc1)c1ccc(CN2CCCN(Cc3cccc(Cl)c3)CC2)cc1` had an XC50 of 826 nM.

Compound `CC(C)(C)c1ccc(-c2nc3c(ccc4nc(N)nc(N)c43)[nH]2)cc1` displayed an XC50 of 158 nM.

`O=C(O)CCSc1ncnc2[nH]cnc12` returned an XC50 of 129 nM.

In turn, `Nc1nc(N)c2c(ccc3c2ccn3Cc2cccc3ccccc23)n1` gave an XC50 of 3.2 nM.

Take `CC(C)(C)SC1SC(SC(C)(C)C)C(OC(=O)c2ccccc2)C(OC(=O)c2ccccc2)C1OC(=O)c1ccccc1` (configuration not stated): the XC50 amounted to 937 nM.

In the case of `Oc1ccc(CCNc2nc(NCc3cccc(OCc4cccc(F)c4)c3)nc(N3CCNCC3)n2)cc1`, the XC50 was found to be 1340 nM.

On to `O=C(NC1CCC(N2CCC3(CC2)C(=O)NCN3c2ccccc2)CC1)c1cc2ccccc2[nH]1` (configuration not stated), for which the XC50 was 679 nM.

For `Cc1cc2cc(/C=C/C(=O)NC3CCC(CCN4CCc5ccc(C#N)cc5CC4)CC3)ccc2[nH]1` (configuration not stated), the XC50 turned out to be 880 nM.

In the case of `CC1CCc2c(C(=O)Nc3c(F)cc(F)cc3Br)csc2C1` (configuration not stated), the XC50 was found to be 752 nM.

On to `O=C(/C=C/c1cccc(Br)c1)NCCCCCN1CCC(c2c[nH]c3ccccc23)CC1`, for which the XC50 is 634 nM.

In turn, `COc1ccc(C[C@H](N)C(=O)N[C@H]2[C@@H](O)[C@H](n3cnc4c(N(C)C)ncnc43)O[C@@H]2CO)cc1` registered an XC50 of 299 nM.

Regarding `CCN1CCN(c2cc(C)c3cc(NC(=O)c4ccc(Br)o4)ccc3n2)CC1`, the XC50 is 755 nM.

Consider `Cc1cccc2nc(-c3ccc(-c4ccc(NC(=O)Nc5ccc(Cl)cc5)cc4)s3)[nH]c12`, for which the XC50 was found to be 152 nM.

With `O=S(=O)(Nc1cccc(CCN2CCC(N3CCCCC3)CC2)c1)c1cccc(C(F)(F)F)c1`, the XC50 turned out to be 976 nM.

`COc1ccc(CCNC(=O)c2ccccc2O)cc1-c1ccc(C(C)(C)C)cc1` registered an XC50 of 563 nM.

Take `Cc1[nH]c(C)c(-c2ccc(-c3cccc(OC(F)(F)F)c3)nc2)c(=O)c1Cl`: the XC50 amounted to 74.5 nM.

In the case of `CC(C)CCN(Cc1cncn1Cc1cccc(C(F)(F)F)c1)C(=O)c1cncc(-c2ccccc2)c1`, the XC50 worked out at 774 nM.

For the compound `CCNc1cc(C(=O)N[C@@H](Cc2ccccc2)[C@H](O)CNCc2cc(OC)cc(OC)c2)cc(N2CCCC2=O)c1`, the XC50 was 736 nM.

For `CN(C)CCOc1ccc(NC(=O)Nc2ccnc3c(Br)cccc23)cc1Cl`, the XC50 turned out to be 842 nM.

`Cc1ccc(-n2cc(CNCCCn3ccnc3)c(-c3cccc(C)c3)n2)cc1` yielded an XC50 of 773 nM.

With `CN(c1cc(NC(=O)c2ccc(F)cc2)ccn1)C1CCN(Cc2cccc(F)c2)CC1`, the XC50 is 495 nM.

In the case of `CC(C)[C@@H](NC(=O)NC1CCC(CCN2C3CCC2CC(OC(=O)C(CO)c2ccccc2)C3)CC1)C(O)(c1ccccc1)c1ccccc1` (some centres not stated), the XC50 was 812 nM.

For the compound `Cc1c(C(=O)NC2CCC(CN3CCC(c4c[nH]c5ccccc45)CC3)CC2)cnn1-c1c(Cl)cc(Cl)cc1Cl` (configuration not stated), the XC50 turned out to be 711 nM.

Compound `NS(=O)(=O)c1cccc(-c2ccc3nccc(-c4cccc(S(N)(=O)=O)c4)c3c2)c1` came in with an XC50 of 1270 nM.

For `O=C(/C=C/c1ccc(Cl)c(Cl)c1)NCCCCCCN1CCN(C(=O)Nc2cccc(Cl)c2)CC1`, the XC50 was determined as 981 nM.

Regarding `CCCCCCN1CCCN(Cc2ccc(C(=O)Nc3ccc(Cl)cc3)cc2)CC1`, the XC50 was 1210 nM.

`O=C(NCC(NCCCNc1cc(=O)c2ccccc2[nH]1)c1cc(Br)cc(Br)c1)C1=CCCC1` (configuration not stated): the XC50 was determined as 901 nM.

For the compound `O=S(=O)(Nc1cccc(CCN2CCC(N3CCCCC3)CC2)c1)c1ccc2c(c1)OCCO2`, the XC50 turned out to be 1230 nM.

The compound `Cc1cc(NC(=O)c2cc(Br)ccc2Cl)n(-c2nc(C)c(C)c(=O)[nH]2)n1` came in with an XC50 of 1130 nM.

Turning to `COc1ccc2nccc([C@@H](O)CN3CCC(NCCOc4ccccc4C(F)(F)F)CC3)c2c1`, the XC50 came to 753 nM.

`COc1cc(NC(=O)/C=C/c2ccccc2OC(F)(F)F)cc(OCCN2CCCCC2)c1` gave an XC50 of 190 nM.

As to `CC(=O)Nc1cccc(C(=O)Nc2nc3ccc(-c4cc(=O)[nH]c(Nc5ccccc5Cl)n4)cc3[nH]2)c1`, the XC50 amounted to 689 nM.

In turn, `Clc1ccccc1CCNCC1CCN(CC2CCCCC2)CC1` yielded an XC50 of 692 nM.

Consider `CN(C)c1cccc2c1nc(-c1ccco1)n2CC1CCCN1` (configuration not stated), for which the XC50 came to 970 nM.

Consider `Nc1ccc(-c2cnc3[nH]cc(-c4ccc(C(=O)O)cc4)c3c2)cn1`, for which the XC50 is 964 nM.

`CCOC(=O)CC[C@H](NC(=O)c1ccc(NS(=O)(=O)c2ccc(-c3cnc(N)[nH]c3=O)cc2)cc1)C(=O)OCC` had an XC50 of 174 nM.

Regarding `COc1ccc(C(C(=O)NC2CCN(C[C@H](O)c3ccnc4ccc(OC)cc34)CC2)N2CCN(c3ccc(Cl)c(Cl)c3)CC2)cc1` (some centres not stated), the XC50 worked out at 204 nM.

`Cc1cc(NCCC(=O)NCCOc2ccccc2)nc(NCCc2ccccc2)n1` returned an XC50 of 1230 nM.

Consider `O=C(NCCCCCN1CCC(c2c[nH]c3ccccc23)CC1)Nc1ccc(I)cc1`, for which the XC50 amounted to 991 nM.

In the case of `NC(=O)C1CCN(Cc2cccc(-c3ccc(-c4nc5cc(C(F)(F)F)ccc5[nH]4)cc3)c2)CC1`, the XC50 was determined as 610 nM.

Take `Cc1ccccc1C1CCN(C2CCC(NC(=O)c3ccc(-c4cccs4)s3)CC2)CC1` (configuration not stated): the XC50 turned out to be 1030 nM.

`S=C(NCC1CCCCC1)NC1CCC(CN2CCC(c3c[nH]c4ccccc34)CC2)CC1` (configuration not stated) showed an XC50 of 1110 nM.

`CC(C)C1C(O)=C(c2ccc3ccccc3c2)C(=O)N1CC1CCCCC1` (configuration not stated) returned an XC50 of 1130 nM.

In the case of `c1ccc(-c2csc(Nc3nc4cc5c(cc4s3)OCO5)n2)nc1`, the XC50 amounted to 579 nM.

`O=C1NC(c2ccc(N3CCCCCC3)cc2)Nc2ccccc21` (configuration not stated) yielded an XC50 of 566 nM.

With `CCCCCN1CCCC(NS(=O)(=O)c2cccc(C(=O)Nc3cccc(C(F)(F)F)c3)c2)C1` (configuration not stated), the XC50 was 1070 nM.

In the case of `O=C(NCc1ccccc1)c1nn(CCCN2CCC(N3CCCC3)CC2)cc1-c1ccc(Cl)c(Cl)c1`, the XC50 amounted to 675 nM.

With `CCNc1cc(C)nc(Nc2ccc(NC(=O)c3ccccc3)cc2)n1`, the XC50 is 1020 nM.

`COc1ccc(Nc2nc(NC3CCN(Cc4ccccc4)CC3)cc(-c3ccncc3)n2)cc1` displayed an XC50 of 992 nM.

As for `COc1ccccc1/C=C/C(=O)N(C)C1CCN(CCCCCNC(=O)/C=C/c2ccc(Cl)c(Cl)c2)C1` (configuration not stated), the XC50 was 867 nM.

Compound `CCCCc1ccc(S(=O)(=O)Nc2ccc3c(c2)CCN(Cc2c[nH]c4cnccc24)CC3)cc1` yielded an XC50 of 674 nM.

For `CN1CCN(S(=O)(=O)c2cccc(Nc3nccc(N(C)c4ccc5c(c4)nc(NC(=O)c4cccs4)n5C)n3)c2)CC1`, the XC50 amounted to 746 nM.

Consider `CCC(C)(C)c1ccc(N2C(N)=NC(N)=NC2(C)C)cc1`, for which the XC50 is 11.8 nM.

Regarding `O=C(c1cccs1)N1N=C(c2cccs2)CC1c1cccc([N+](=O)[O-])c1` (configuration not stated), the XC50 came to 820 nM.

`COC1CCC(C(=O)Nc2ccc(-c3cccc(-c4nc5cc(C(F)(F)F)ccc5[nH]4)c3)cc2)CC1` (configuration not stated) had an XC50 of 547 nM.

Compound `CCNc1cc(C(=O)N[C@@H](Cc2ccccc2)[C@H](O)CN[C@@H]2CCc3ccccc32)cc(N2CCCCS2(=O)=O)c1` gave an XC50 of 555 nM.

As to `N#Cc1cncc(-c2nc3c(N4CCN(c5cnccn5)CC4)cccc3n2CCNCc2ccccc2)c1`, the XC50 is 912 nM.

For the compound `Cc1cc(C(=O)CN2C(=O)NC3(CCCc4ccccc43)C2=O)c(C)n1Cc1ccc(F)cc1` (configuration not stated), the XC50 was 970 nM.

For the compound `CCOc1ccc2[nH]c(C)cc(=NN=Cc3cccc(F)c3)c2c1`, the XC50 turned out to be 736 nM.

With `O=C(Nc1cccc(-c2ccc(-c3nc4ccccc4[nH]3)cc2)c1)c1ccncc1`, the XC50 is 529 nM.

`CC(CNC(=O)[C@H]1CNCCN1C(=O)CCCc1ccccc1)c1ccccc1` (some centres not stated) gave an XC50 of 915 nM.

The compound `CCC(C)NS(=O)(=O)c1ccc2nc(Nc3ccc(C)c(Cl)c3)n(C3CCCCC3)c2c1` (configuration not stated) returned an XC50 of 511 nM.

Take `O=C(CCN1C(=O)c2ccccc2C1=O)N1CCN(CC=Cc2ccccc2)CC1`: the XC50 turned out to be 541 nM.

Consider `CCCCC(CC)CN1C(=O)C(c2ccccc2)(c2ccccc2)N=C1N` (configuration not stated), for which the XC50 came out at 189 nM.

`CO[C@@H]1C[C@@H](C(=O)Nc2ccccc2)N(c2ccc(C#N)c3ccccc23)C1`: the XC50 stood at 907 nM.

For the compound `Cc1ccc2[nH]c(-c3ccc(C=CC(=O)NC4CCN(Cc5ccccc5)CC4)cc3)nc2c1`, the XC50 was determined as 684 nM.

`CC(C)NCc1cccc(-c2ccc(NS(=O)(=O)c3cccc4cccnc34)cc2)c1` gave an XC50 of 1080 nM.

The compound `O=C(NCCCCCN1CCC(c2c[nH]c3ccccc23)CC1)Nc1cccc(C(F)(F)F)c1` displayed an XC50 of 1000 nM.

The compound `CN=C(NC)c1cccc(NC(=O)C=Cc2ccc(C=CC(=O)Nc3cccc(C(=NC)NC)c3)cc2)c1` yielded an XC50 of 164 nM.

Regarding `CCN(CC)CCCNc1nccc(N(C)c2ccc(NC(=O)Nc3cc(C(F)(F)F)ccc3F)cc2)n1`, the XC50 came to 1050 nM.

The compound `NCCNc1ccnc2cc(Cl)ccc12` had an XC50 of 125 nM.
